{"source": "ChEMBL document CHEMBL4619725", "about": "“Ultrasounds-mediated 10-seconds synthesis of chalcones as potential farnesyltransferase inhibitors” (Bioorg Med Chem Lett, 2020)", "key": {"[1]": {"test": "Inhibition of C-terminal His6-tagged human recombinat FTase expressed in Escherichia coli BL21 RIL (DE3) cells using Dansyl-GCVLS peptide and farnesyl pyrophosphate as substrate measured for 15 mins by fluorimetric analysis"}, "[2]": {"species": "Homo sapiens", "test": "Inhibition of C-terminal His6-tagged human recombinat FTase expressed in Escherichia coli BL21 RIL (DE3) cells using Dansyl-GCVLS peptide and farnesyl pyrophosphate as substrate at 100 uM measured for 15 mins by fluorimetric analysis relative to control"}, "[3]": {"tested_on": "MCF7", "test": "Cytostatic activity against human MCF7 cells assessed as growth inhibition at 10 uM incubated for 48 hrs by sulforhodamine B assay relative to control", "format": "functional", "conditions": "MCF7, 48 h, read-out: GI"}, "[4]": {"tested_on": "KM12", "test": "Cytostatic activity against human KM12 cells assessed as growth inhibition at 10 uM incubated for 48 hrs by sulforhodamine B assay relative to control", "format": "functional", "conditions": "for inhibition of growth at 10 µM: KM12, 48 h, read-out: GI"}, "[5]": {"tested_on": "LOX IMVI", "test": "Cytostatic activity against human LOXIMVI cells assessed as growth inhibition at 10 uM incubated for 48 hrs by sulforhodamine B assay relative to control", "format": "functional", "conditions": "for inhibition of growth at 10 µM: read-out: GI"}, "[6]": {"tested_on": "SR", "test": "Cytostatic activity against human SR cells assessed as growth inhibition at 10 uM incubated for 48 hrs by sulforhodamine B assay relative to control", "format": "functional", "conditions": "read-out: GI"}, "[7]": {"tested_on": "RPMI-8226", "test": "Cytostatic activity against human RPMI8226 cells assessed as growth inhibition at 10 uM incubated for 48 hrs by sulforhodamine B assay relative to control", "format": "functional", "conditions": "RPMI-8226, 48 h, read-out: GI"}, "[8]": {"tested_on": "CCRF-CEM", "test": "Cytostatic activity against human CCRF-CEM cells assessed as growth inhibition at 10 uM incubated for 48 hrs by sulforhodamine B assay relative to control", "format": "functional", "conditions": "for inhibition of growth at 10 µM: read-out: GI"}, "[9]": {"tested_on": "K562", "test": "Cytostatic activity against human K562 cells assessed as growth inhibition at 10 uM incubated for 48 hrs by sulforhodamine B assay relative to control", "format": "functional", "conditions": "K562, 48 h, read-out: GI"}, "[10]": {"tested_on": "SW-620", "test": "Cytostatic activity against human SW620 cells assessed as growth inhibition at 10 uM incubated for 48 hrs by sulforhodamine B assay relative to control", "format": "functional", "conditions": "for inhibition of growth at 10 µM: SW-620, 48 h, read-out: GI"}, "[11]": {"tested_on": "OVCAR-3", "test": "Cytostatic activity against human OVCAR3 cells assessed as growth inhibition at 10 uM incubated for 48 hrs by sulforhodamine B assay relative to control", "format": "functional", "conditions": "for inhibition of growth at 10 µM: OVCAR-3, 48 h, read-out: GI"}, "[12]": {"tested_on": "HCT-116", "test": "Cytostatic activity against human HCT116 cells assessed as growth inhibition at 10 uM incubated for 48 hrs by sulforhodamine B assay relative to control", "format": "functional", "conditions": "HCT-116, 48 h, read-out: GI"}, "[13]": {"tested_on": "NCI-H522", "test": "Cytostatic activity against human NCI-H522 cells assessed as growth inhibition at 10 uM incubated for 48 hrs by sulforhodamine B assay relative to control", "format": "functional", "conditions": "NCI-H522, 48 h, read-out: GI"}}, "note": "Activity calls are given as the source filed them. The calls are words filed in the database; no cut-off is given here.", "data": [{"smiles": "CCOC(=O)c1cc(C(=O)/C=C/c2ccc3c(c2)Sc2ccccc2N3C)n2ccccc12", "values": [{"measurement": "IC50", "setting": "[1]", "value": 0.009, "unit": "µM"}]}, {"smiles": "CCOc1ccc(C(=O)/C=C/c2cccs2)cn1", "values": [{"measurement": "IC50", "setting": "[1]", "value": 24.9, "unit": "µM"}, {"measurement": "inhibition", "setting": "[2]", "value": 86, "unit": "%"}]}, {"smiles": "O=C(/C=C/c1cccs1)c1ccc(Cl)nc1", "values": [{"measurement": "inhibition of growth at 10 µM", "setting": "[3]", "value": 32.3, "unit": "%"}, {"measurement": "growth inhibition (GI)", "setting": "[4]", "value": "inactive"}, {"measurement": "growth inhibition (GI)", "setting": "[5]", "value": "inactive"}, {"measurement": "inhibition of growth at 10 µM", "setting": "[6]", "value": 17.5, "unit": "%"}, {"measurement": "inhibition of growth at 10 µM", "setting": "[7]", "value": 95.8, "unit": "%"}, {"measurement": "inhibition of growth at 10 µM", "setting": "[8]", "value": 8.6, "unit": "%"}, {"measurement": "inhibition of growth at 10 µM", "setting": "[9]", "value": 2.9, "unit": "%"}, {"measurement": "growth inhibition (GI)", "setting": "[10]", "value": "inactive"}, {"measurement": "growth inhibition (GI)", "setting": "[11]", "value": "inactive"}, {"measurement": "inhibition of growth at 10 µM", "setting": "[12]", "value": 8.9, "unit": "%"}, {"measurement": "inhibition of growth at 10 µM", "setting": "[13]", "value": 18, "unit": "%"}]}, {"smiles": "O=C(/C=C/c1ccc(Cl)c(Cl)c1)c1cccs1", "values": [{"measurement": "inhibition of growth at 10 µM", "setting": "[3]", "value": 87.1, "unit": "%"}, {"measurement": "inhibition of growth at 10 µM", "setting": "[4]", "value": 15.4, "unit": "%"}, {"measurement": "inhibition of growth at 10 µM", "setting": "[5]", "value": 45.7, "unit": "%"}, {"measurement": "inhibition of growth at 10 µM", "setting": "[6]", "value": 78, "unit": "%"}, {"measurement": "inhibition of growth at 10 µM", "setting": "[7]", "value": 66.9, "unit": "%"}, {"measurement": "inhibition of growth at 10 µM", "setting": "[8]", "value": 31.3, "unit": "%"}, {"measurement": "inhibition of growth at 10 µM", "setting": "[9]", "value": 71.6, "unit": "%"}, {"measurement": "inhibition", "setting": "[2]", "value": 47, "unit": "%"}, {"measurement": "inhibition of growth at 10 µM", "setting": "[10]", "value": 29.6, "unit": "%"}, {"measurement": "inhibition of growth at 10 µM", "setting": "[11]", "value": 6.8, "unit": "%"}, {"measurement": "inhibition of growth at 10 µM", "setting": "[12]", "value": 39.8, "unit": "%"}, {"measurement": "inhibition of growth at 10 µM", "setting": "[13]", "value": 24.7, "unit": "%"}]}, {"smiles": "O=C(/C=C/c1ccc(Cl)cc1Cl)c1ccc(Cl)c(Cl)c1", "values": [{"measurement": "inhibition of growth at 10 µM", "setting": "[3]", "value": 28.3, "unit": "%"}, {"measurement": "inhibition of growth at 10 µM", "setting": "[4]", "value": 0.3, "unit": "%"}, {"measurement": "growth inhibition (GI)", "setting": "[5]", "value": "inactive"}, {"measurement": "inhibition of growth at 10 µM", "setting": "[6]", "value": 2.8, "unit": "%"}, {"measurement": "inhibition of growth at 10 µM", "setting": "[7]", "value": 5.4, "unit": "%"}, {"measurement": "growth inhibition (GI)", "setting": "[8]", "value": "inactive"}, {"measurement": "IC50", "setting": "[1]", "value": 8.7, "unit": "µM"}, {"measurement": "inhibition of growth at 10 µM", "setting": "[9]", "value": 2.4, "unit": "%"}, {"measurement": "inhibition", "setting": "[2]", "value": 74, "unit": "%"}, {"measurement": "growth inhibition (GI)", "setting": "[10]", "value": "inactive"}, {"measurement": "growth inhibition (GI)", "setting": "[11]", "value": "inactive"}, {"measurement": "inhibition of growth at 10 µM", "setting": "[12]", "value": 13.9, "unit": "%"}, {"measurement": "inhibition of growth at 10 µM", "setting": "[13]", "value": 11.4, "unit": "%"}]}, {"smiles": "O=C(/C=C/c1ccc(Cl)cc1Cl)c1ccc(Cl)cc1Cl", "values": [{"measurement": "IC50", "setting": "[1]", "value": 38.7, "unit": "µM"}, {"measurement": "inhibition", "setting": "[2]", "value": 69, "unit": "%"}]}, {"smiles": "CCCCCCCCCCCCCC/C(C(=O)O)=C(\\C)C(=O)O", "note": "[CHAETOMELLIC ACID A]", "values": [{"measurement": "IC50", "setting": "[1]", "value": 0.18, "unit": "µM"}, {"measurement": "inhibition", "setting": "[2]", "value": 100, "unit": "%"}]}, {"smiles": "O=C(/C=C/c1ccc(Cl)nc1)c1cccs1", "values": [{"measurement": "inhibition of growth at 10 µM", "setting": "[3]", "value": 84.3, "unit": "%"}, {"measurement": "inhibition of growth at 10 µM", "setting": "[4]", "value": 57.8, "unit": "%"}, {"measurement": "inhibition of growth at 10 µM", "setting": "[5]", "value": 85, "unit": "%"}, {"measurement": "inhibition of growth at 10 µM", "setting": "[8]", "value": 38.6, "unit": "%"}, {"measurement": "inhibition of growth at 10 µM", "setting": "[9]", "value": 65.8, "unit": "%"}, {"measurement": "inhibition", "setting": "[2]", "value": 28, "unit": "%"}, {"measurement": "inhibition of growth at 10 µM", "setting": "[10]", "value": 47.6, "unit": "%"}, {"measurement": "inhibition of growth at 10 µM", "setting": "[11]", "value": 45.8, "unit": "%"}, {"measurement": "inhibition of growth at 10 µM", "setting": "[12]", "value": 35.5, "unit": "%"}, {"measurement": "inhibition of growth at 10 µM", "setting": "[13]", "value": 37.2, "unit": "%"}]}, {"smiles": "O=C(/C=C/c1ccc(Cl)cc1Cl)c1cccs1", "values": [{"measurement": "IC50", "setting": "[1]", "value": 25.8, "unit": "µM"}, {"measurement": "inhibition", "setting": "[2]", "value": 84, "unit": "%"}]}, {"smiles": "O=C(/C=C/c1ccc(Cl)c(Cl)c1)c1ccc(Cl)cc1Cl", "values": [{"measurement": "inhibition", "setting": "[2]", "value": 53, "unit": "%"}]}, {"smiles": "O=C(/C=C/c1ccc(Cl)cc1Cl)c1ccc(Cl)nc1", "values": [{"measurement": "inhibition of growth at 10 µM", "setting": "[3]", "value": 63.4, "unit": "%"}, {"measurement": "inhibition of growth at 10 µM", "setting": "[4]", "value": 3.6, "unit": "%"}, {"measurement": "inhibition of growth at 10 µM", "setting": "[5]", "value": 65.1, "unit": "%"}, {"measurement": "inhibition of growth at 10 µM", "setting": "[6]", "value": 55.7, "unit": "%"}, {"measurement": "inhibition of growth at 10 µM", "setting": "[7]", "value": 8.9, "unit": "%"}, {"measurement": "inhibition of growth at 10 µM", "setting": "[8]", "value": 6.5, "unit": "%"}, {"measurement": "inhibition of growth at 10 µM", "setting": "[9]", "value": 18.9, "unit": "%"}, {"measurement": "inhibition", "setting": "[2]", "value": 39, "unit": "%"}, {"measurement": "inhibition of growth at 10 µM", "setting": "[10]", "value": 7.9, "unit": "%"}, {"measurement": "growth inhibition (GI)", "setting": "[11]", "value": "inactive"}, {"measurement": "inhibition of growth at 10 µM", "setting": "[12]", "value": 56.6, "unit": "%"}, {"measurement": "inhibition of growth at 10 µM", "setting": "[13]", "value": 24.2, "unit": "%"}]}, {"smiles": "O=C(CC(O)c1cccs1)c1cccs1", "note": "(racemic)", "values": [{"measurement": "IC50", "setting": "[1]", "value": 0.6, "unit": "µM"}, {"measurement": "inhibition", "setting": "[2]", "value": 86, "unit": "%"}]}, {"smiles": "O=C(/C=C/c1ccc(Cl)nc1)c1ccc(Cl)c(Cl)c1", "values": [{"measurement": "inhibition of growth at 10 µM", "setting": "[3]", "value": 66.4, "unit": "%"}, {"measurement": "inhibition of growth at 10 µM", "setting": "[4]", "value": 44.4, "unit": "%"}, {"measurement": "inhibition of growth at 10 µM", "setting": "[5]", "value": 37.6, "unit": "%"}, {"measurement": "inhibition of growth at 10 µM", "setting": "[8]", "value": 26.6, "unit": "%"}, {"measurement": "inhibition of growth at 10 µM", "setting": "[9]", "value": 48.3, "unit": "%"}, {"measurement": "inhibition", "setting": "[2]", "value": 54, "unit": "%"}, {"measurement": "inhibition of growth at 10 µM", "setting": "[10]", "value": 40.1, "unit": "%"}, {"measurement": "inhibition of growth at 10 µM", "setting": "[11]", "value": 43.5, "unit": "%"}, {"measurement": "inhibition of growth at 10 µM", "setting": "[12]", "value": 55.1, "unit": "%"}, {"measurement": "inhibition of growth at 10 µM", "setting": "[13]", "value": 45.8, "unit": "%"}]}, {"smiles": "CCOc1ccc([C@]2(O)C[C@H](c3cccs3)[C@@H](C(=O)c3ccc(Cl)nc3)[C@H](c3cccs3)[C@H]2C(=O)c2ccc(Cl)nc2)cn1", "values": [{"measurement": "inhibition", "setting": "[2]", "value": 24, "unit": "%"}]}]}
